A word on the IC50: it is the concentration at which inhibition is half-maximal. Low readings indicate greater potency in that assay, high ones weaker potency in that assay.

This passage reports IC50 results from PubChem BioAssay AID2305 (GlaxoSmithKline (GSK), 2010).

Values joined by “and” are separate entries in the source; they are usually repeats but may differ in a detail not shown here. Equal entries are not always repeated.

The subject of this assay is P. falciparum 3D7 growth, pLDH absorbance. Briefly: P. falciparum 3D7 growth inhibition, dose response, strain 3D7 (AID 2305).

The compound `c1ccc(CNCc2cccc(-c3cccc(-c4nc5ccccc5[nH]4)c3)c2)cc1` had an IC50 of 0.57 µM. The result for `COc1cc2ncnc(Nc3ccc4nc(-c5ccccc5)[nH]c4c3)c2cc1OC` reads 0.44 µM; that for `COc1cc2c(cc1S(=O)(=O)c1ccc(NC(=O)c3cccc(C(F)(F)F)c3)cc1)CCN(C)CC2`, 1.38 µM; that for `NC1CCCN(Cc2ccc(-c3ccc(-c4nc5ccc(F)cc5[nH]4)s3)cc2)C1` (configuration not stated), 0.18 µM. With `Cc1ccc(CON2C(N)=NC(N)=NC23CCCCC3)c2ccccc12` the figure was 0.07 µM.

`O=C(Nc1cccc(-c2nn3ccccc3c2-c2ccnc(Nc3ccccc3)n2)c1)c1cc(F)ccc1F` had an IC50 of 0.95 µM. For the compound `Oc1ccc(CCNc2nc(NCCOc3cccc4ccccc34)nc(N3CCNCC3)n2)cc1`, the IC50 came to 0.9 µM.

`c1ccn2c(-c3ncnc(NCc4ccc5c(c4)CCO5)n3)cnc2c1` displayed an IC50 of 1.19 µM. The IC50 values of the last two compounds are within 1.5-fold of each other. The result for `COc1ccc(NC(=O)Nc2ccc(C)c(-c3ccc(C(=O)NCCN4CCCC4)cc3)c2)cc1` reads 0.9 µM; that for `NC1=NC(Cc2ccccc2)N(c2ccc(Cl)cc2)C(N)=N1` (configuration not stated), 0.14 µM; that for `Cc1cc2c(cc1C(F)(F)F)N(C(=O)Nc1cc(C(=O)NC3CCN(Cc4ccccc4)C3)cc(C(F)(F)F)c1)CC2` (configuration not stated), 0.34 µM. With `Cc1[nH]c(C)c(-c2ccc(-c3ccc(OC(F)(F)F)cc3)nc2)c(=O)c1Br` the figure was 0.25 µM.

For `CS(=O)(=O)Cc1ccc(Nc2nccc(-c3c(-c4cccc(NC(=O)c5c(F)cccc5F)c4)nn4ncccc34)n2)cc1`, the IC50 stood at 0.16 µM. The result for `COc1ccc(Nc2nccc(N3CCC(NC(=O)C(C)c4ccc(Cl)cc4)C3)n2)cc1` (configuration not stated) reads 1.01 µM.

The compound `CSC1=NC(=Nc2c(C)cccc2C)C2(CCCCC2)N1c1ccccc1Cl` registered an IC50 of 0.82 µM.

Turning to `O=C(Nc1ccc(OC2CCN(Cc3ccc(F)cc3)C2)cc1)c1ccco1` (configuration not stated), the IC50 came out at 1.04 µM. In turn, `COc1ccccc1Oc1c(N(C)S(=O)(=O)c2ccc(C(C)C)cc2)nc(C(F)(F)F)nc1N(C)S(=O)(=O)c1ccc(C(C)C)cc1` yielded an IC50 of 0.85 µM. With `Cc1cccc2[nH]c(-c3cccc(-c4ccc(NC(=O)C(C)(C)c5ccccn5)cc4)c3)nc12` the figure was 0.69 µM. Regarding `NC(N)=Nc1ccc(OCCCCCOc2ccc(N=C(N)N)c(Cl)c2)cc1Cl`, the IC50 turned out to be 0.86 µM.

On to `Cc1cccc2[nH]c(-c3ccc(-c4cccc(CNCc5ccc(CN)cc5)c4)s3)nc12`, for which the IC50 came to 0.61 µM. In turn, `O=C(NC1CCN(Cc2ccccc2)CC1)c1ccc2c(=O)n(Cc3ccc(Cl)cc3)c(=S)[nH]c2c1` yielded an IC50 of 1 µM.

The compound `CC1CC(NCCCNc2cc(=O)c3ccccc3[nH]2)c2cc(Cl)c(Cl)c(Cl)c21` (configuration not stated) came in with an IC50 of 0.72 µM. With `O=C(C=C1c2ccccc2-c2ccccc21)NC1CCC(CN2CCC(c3c[nH]c4ccccc34)CC2)CC1` (configuration not stated) the figure was 0.79 µM and 0.7 µM; with `Fc1ccc(NC(=S)NCCc2ccccc2)cc1`, 0.78 µM. `CCCCCN1CCCCC(NS(=O)(=O)c2ccc(C(=O)Nc3ccc(C(F)(F)F)cc3)cc2)C1` (configuration not stated) returned an IC50 of 0.77 µM.

As for `CCCCCOc1ccc(NC2=CC(=O)C(=O)c3ccccc32)cc1`, the IC50 worked out at 0.24 µM. Against the preceding compound, the IC50 is about 3.2-fold lower. With `CS(=O)(=O)c1ccc(-c2cnc(N)c(-c3cccc(CO)c3)c2)cc1` the figure was 0.94 µM.

`Cc1ccc(NC(=O)c2ccc3ncccc3c2)cc1OC1CCN(CCC(C)C)CC1`: the IC50 is 0.69 µM. With `Cc1cccc(C=NNc2cc(C)nc3ccc(F)cc23)n1` the figure was 1 µM.

`COc1ccccc1CCNC(=O)c1cnc(N2CCN(c3ccncc3)CC2)c(Cl)c1` showed an IC50 of 1.15 µM. With `COc1ccc(-c2nc(NC(=O)Cc3ccc4c(c3)OCCO4)sc2C)cc1` the figure was 0.24 µM; with `CCOC(=O)C(C(C)=O)C(c1ccccc1)C(C(C)=O)C(=O)OCC` (configuration not stated), 0.75 µM; with `CC1CCC2(CC1)N=C(N)N=C(N)N2OCCCCCCCCO` (configuration not stated), 0.15 µM. With `CCc1c(CCNCCCCCCNCCc2ccccc2)ccc(OC)c1OC` the figure was 0.8 µM; with `O=C1SC(=Cc2ccc(O)c(O)c2)C(=O)N1c1ccccc1`, 1.2 µM. The result for `COc1cc(NCCCNCc2cn(Cc3cc(Br)cc(Br)c3)c3ccccc23)nc2ccccc12` reads 0.18 µM; that for `CCn1c(-c2nonc2N)nc2c(-c3cccc(NC(=O)Nc4cccc(C#N)c4)c3)ncc(OCCCN)c21`, 0.67 µM. Turning to `Cc1cccc(C)c1NC1=NC(=S)N(c2cccc(Cl)c2)C12CCC(C(C)(C)C)CC2` (configuration not stated), the IC50 was 0.76 µM. With `CCN(CCCN1CCCCC1)c1cc(C)nc(Nc2cc(Cl)cc(Cl)c2)n1` the figure was 0.29 µM. With `CCN(CC)CCNC(=O)c1ccc(NC(=O)c2ccc(-c3cc(NC(=O)CC4CCCC4)ccc3C)cc2)cc1` the figure was 0.56 µM; with `COc1cccc(CN2CCC(CCOC(c3ccccc3)c3ccccc3)CC2)c1O`, 0.73 µM; with `CC(C)c1ccc(-c2noc(SCC(=O)N3CCCCC3C)n2)cc1` (configuration not stated), 1.67 µM. With `COc1ccc(CN(C)CCCCc2ccc(NC(=O)COc3cccc4sc5ccccc5c(=O)c34)cc2)cc1OC` the figure was 0.81 µM. On to `O=C(Cn1c(SCc2cccc(F)c2F)cc(=O)c2ccccc21)N(CCN1CCCCC1)Cc1ccc(-c2ccc(C(F)(F)F)cc2)cc1`, for which the IC50 amounted to 0.66 µM. With `COc1ccc(Nc2ncc(Cl)c(Nc3cccnc3C(N)=O)n2)cc1N1CCN(C)CC1` the figure was 0.23 µM. `CN(C)c1ccc2c(c1)Sc1cc(N(C)C)ccc1N2C(=O)CCCC(=O)O` registered an IC50 of 0.8 µM. The result for `COc1ccccc1C1CC(c2ccccc2)=NN1C(=O)c1ccco1` (configuration not stated) reads 0.4 µM; that for `CC1CN(CC(O)Cn2c3ccc(Br)cc3c3cc(Br)ccc32)CC(C)O1` (configuration not stated), 0.78 µM.

Turning to `COc1ccccc1N1CCN(C(C(=O)NCc2ccc3c(c2)OCO3)c2ccc3c(c2)OCCCO3)CC1` (configuration not stated), the IC50 is 1.12 µM. This IC50 and that of the compound before are within 1.5-fold of each other. Consider `CS(=O)(=O)c1ccc2c(c1)CCN(CCC1CCC(NC(=O)c3cc4cccc(Br)c4[nH]3)CC1)CC2` (configuration not stated), for which the IC50 was 1.04 µM. With `CCN(CC)CCON=Cc1cc(C)c2[nH]c3ccc(OCc4ccccc4)cc3c2c1C` the figure was 0.97 µM. Compound `CC[C@H]1CN(Cc2ccco2)CC[C@H]1CCCc1ccnc2ccc(O)cc12` gave an IC50 of 1.27 µM. The result for `Cc1cc2ccccc2c(CON2C(N)=NC(N)=NC2(C)C)c1C` reads 0.01 µM; that for `CC(=O)Nc1nc(C(=O)Nc2ccc(-c3ccc(-c4nc5c(C)cccc5[nH]4)cc3)cc2)cs1`, 0.18 µM; that for `c1ccc(CCNc2ccnc(Nc3ccc4cn[nH]c4c3)n2)cc1`, 0.47 µM. As for `CCOC(=O)CCCOc1c(OC)cc(Cc2cnc(N)nc2N)cc1OC`, the IC50 came to 0.78 µM. With `O=C(Nc1cccc(CN2CCN(Cc3ccc(O)cc3)CC2)c1)c1ccc(-c2ccccc2)cc1` the figure was 0.25 µM; with `Cc1cc(C(=O)CN2C(=O)NC3(CCCc4ccccc43)C2=O)c(C)n1Cc1ccc(F)cc1` (configuration not stated), 0.97 µM. The result for `CC[C@H]1CN2CCc3cc(OC)c(OC)cc3[C@@H]2C[C@@H]1C[C@H]1NCCc2cc(OC)c(OC)cc21` reads 0.21 µM; that for `Cc1ccccc1N1CCN(c2ccc(C(=O)Nc3ccccc3)cn2)CC1`, 0.59 µM; that for `ON=C1CCc2cc(-c3nc(-c4cccc(OCCNCc5ccc(F)cc5)c4)[nH]c3-c3ccncc3)ccc21`, 0.89 µM. Compound `COc1cc2c(cc1N(C(C)C)S(=O)(=O)c1sc3ccc(Cl)cc3c1C)CCNCC2` returned an IC50 of 1.05 µM. The result for `COc1ccc(NC(=O)Nc2ccc(C)c(-c3ccc(C(=O)Nc4ccncc4)cc3)c2)cc1` reads 0.57 µM.

`COc1ccc(C(=O)Nc2ccc3nc(N4CCCCC4)cc(C)c3c2)cc1OC` displayed an IC50 of 0.99 µM. For `CN1CCN(CCCN(Cc2ccc(-c3ccc(CNC4CCCC4)cc3)cc2)C(=O)CCC2CCCC2)CC1`, the IC50 came out at 0.89 µM. With `N#Cc1ccc(CNCCCCCCNCc2ccc(C#N)c3ccccc23)c2ccccc12` the figure was 0.61 µM; with `COC(=O)CCCOc1cc(Cc2cnc(N)nc2N)cc(OC)c1OC`, 0.77 µM. In turn, `O=C(Nc1cccc(CN2CCCN(CC3CCCCC3)CC2)c1)c1cc2ccccc2s1` registered an IC50 of 0.81 µM. `CCN1CCC(N(Cc2ccc(-c3ccc(C(F)(F)F)cc3)cc2)C(=O)Cn2c(CCc3cccc(F)c3F)nc(=O)c3ccccc32)CC1` yielded an IC50 of 1.06 µM. With `CN(Cc1cccc(F)c1)C1CCCN(c2cc(NC(=O)c3ccccc3)ccn2)C1` (configuration not stated) the figure was 0.92 µM; with `CS(=O)(=O)Cc1ccc(Nc2nccc(-c3c(-c4cccc(NC(=O)C5CCCCC5)c4)nn4ncccc34)n2)cc1`, 0.2 µM. The result for `Clc1ccc(-c2cc(-c3csc(NCCN4CCOCC4)n3)on2)c(Cl)c1` reads 0.66 µM; that for `CCc1ccc(NC(=O)c2cccc(CN3CCCN(Cc4ccc(OC)cc4)CC3)c2)cc1`, 0.92 µM. `Cc1[nH]c(C)c(-c2ccc(Oc3cccc(Cl)c3)cc2)c(=O)c1Cl`: the IC50 is 0.02 µM. This IC50 is about 46-fold lower than that of the compound before. The result for `O=C(N[C@@H]1C[C@H]1c1ccccc1)N(CCCn1ccnc1)Cc1csc(-c2ccc(CNCc3ccccc3)cc2)n1` reads 0.85 µM; that for `NS(=O)(=O)c1cccc(-c2ccc3ncc(N4CCOCC4)nc3c2)c1`, 0.99 µM; that for `O=C(COC(=O)c1cccc(S(=O)(=O)N2CCc3ccccc32)c1)NNC(=O)c1cccs1`, 1.25 µM. Compound `COc1ccc(Nc2cc(C)c3cc(NC(=O)c4ccncc4)ccc3n2)cc1` showed an IC50 of 0.91 µM. The IC50 values of the last two compounds are within 1.5-fold of each other. The result for `Oc1ccc(CCNc2nc(NCCCOc3cccc(CN4CCCCC4)c3Cl)nc(N3CCNCC3)n2)cc1` reads 1.37 µM. The result for `CC(=O)Nc1ccc(C(=O)Nc2ccc(-c3cccc(-c4nc5c(C)cccc5[nH]4)c3)cc2)cn1` reads 0.26 µM; that for `Oc1cccc(-c2cnc3ccc(NCc4ccc(F)cc4)nn23)c1`, 1.08 µM; that for `COc1cc(CN=C(Nc2ccc(-c3ccccc3)cc2)Nc2ccc(C#N)cc2O)cc(OC)c1`, 0.72 µM.

Take `O=C(/C=C/c1ccc(Cl)c(Cl)c1)N1CCC(CCN2CCC(c3c[nH]c4ccncc34)CC2)CC1`: the IC50 turned out to be 1.14 µM. With `O=c1cc(NCCCNCc2ccccc2-c2ccccc2)[nH]c2ccccc12` the figure was 0.98 µM; with `CC(=O)c1ccc(S(=O)(=O)N2CCC(C(=O)Nc3ccccc3N3CCCC3)CC2)cc1`, 0.83 µM; with `COc1ccc2ncc(F)c([C@@H](O)CN3CCC(NCc4cc5c(cn4)OCS5)CC3)c2c1`, 0.14 µM.

With `COc1cccc(-c2nc3c(N4CCN(c5ccncc5)CC4)cccc3n2CC2CCCCCN2)n1` (configuration not stated), the IC50 was found to be 1.06 µM.
